# Test results: PMC3670040, “Structure of Lipid Kinase p110β/p85β Elucidates an Unusual SH2-Domain-Mediated Inhibitory Mechanism” (Molecular Cell, 2011)
# Columns and labels:
# [1] = tested on: p110β/p85β-nic; assay: ATPase activity (ADP formation) in the absence of lipid substrate, Transcreener; format: biochemical, mouse; details: absence of lipid substrate; 75 nM protein, 100 μM ATP; 5 μM GDC0941 or D913N mutation; Figure S3B
# Experimental: (§1) Figure 1 Inhibition of p110β by p85-Type Regulatory Subunits and Activation of the Complexes by RTK Phosphopeptide (A) Domain organization of p110β and the regulatory subunits p85α, p85β, and p55γ. The color scheme for the domains is used for all figures, unless otherwise stated. […] The inhibition is released upon addition of the 10 μM PDGFR pY2. […] The y axis is expressed as a change in fluorescence polarization (ΔmP), which is obtained by subtracting the observed polarization for the construct at a given enzyme concentration from the maximum fluorescence polarization for that construct. The plateau in these assays arises due to the competitive nature of the ADP detection system, based on displacement of ADP-Alexa 633 tracer from the ADP^2-antibody by ADP generated during the PI3K assay (see Supplemental Experimental Procedures). All measurements were done in triplicates, and the error bars indicate the standard error of the mean (SEM). […]
# The lipid kinase activity was determined using the Transcreener ADP2 FP Assay (BellBrook Labs, Madison, WI) according to manufacturer‟s specifications. This non-radioactive assay measures activity by quantitating the amount of ADP formed. The ADP formed by PI3K competes with fluorescent ADP tracer for binding to an anti-ADP antibody, thereby decreasing fluorescence polarization. […]
# [2] = tested on: p110β; assay: Transcreener ADP formation (fluorescence polarization), diC8-PIP2/POPS liposomes, mouse p110β complexes; format: biochemical; details: absence of pY2; ADP formation; Figures 3A, 3B
# Experimental: as §1
# Figure 3 Mutation Y677A in p85β-cSH2 Releases Inhibitory Effect on p110β (A) Kinase activity (ADP formation) of p110β in a complex with p85β-icSH2-Y677A (Y677A-ic) compared to the wild-type complex (ic) in the absence and presence of 10 μM PDGFR pY2 (ADP formation on the y axis expressed as in Figure 1B). […]
# The lipid kinase activity was determined using the Transcreener ADP2 FP Assay (BellBrook Labs, Madison, WI) according to manufacturer‟s specifications. This non-radioactive assay measures activity by quantitating the amount of ADP formed. The ADP formed by PI3K competes with fluorescent ADP tracer for binding to an anti-ADP antibody, thereby decreasing fluorescence polarization. Because of the competitive nature of this assay, the change in fluorescence polarization signal is not a linear function of enzyme activity, and a convenient measure of enzyme activity is the EC50, or the concentration of enzyme necessary to give half-maximal inhibition of labeled ADP binding to the antibody, for a given concentration of substrate and a fixed time of reaction at initial rate. […]
# [3] = tested on: PKB; assay: PKB phosphorylation in transfected HEK cells (Western blot); format: cell-based, human
# Experimental: Figure 4 cSH2 Is Important for p110β Inhibition In Vitro and in Cells (A) Kinase activity of human p110β and icSH2 wild-type constructs from three human regulatory subunits (p85α, p85β, and p55γ) in the absence and presence of 10 μM PDGFR pY2 (y axis as in Figure 1B). EC50s for wild-type and icSH2 tyrosine mutants, in the absence and presence of 10 μM PDGF pY2, are shown. (B) Western blots of HEK cells transiently expressing wild-type and mutant human p110β/p85α. The membrane was probed with antibodies against PKB, pPKB (pSer473), myc (p110β), FLAG (p85α), and actin. Bar graphs show mean ± SEM (n = 3) of PKB phosphorylation level normalized to wild-type p110β/p85α (WT). The position of the three mutations is mapped on the p110β/p85β structure. TEXT PRINTED IN THE PICTURE: (A) p110β/p85α-ic: EC50 (nM): 3 | (A) p110β/p85α-ic+pY2: EC50 (nM): 0.3 | (A) p110β/p85β-ic: EC50 (nM): 1.2 | (A) p110β/p85β-ic+pY2: EC50 (nM): 0.3 | (A) p110β/p55γ-ic: EC50 (nM): 1.5 | (A) p110β/p55γ-ic+pY2: EC50 (nM): 0.3 | (A) p110β/p85α-ic-Y685A: EC50 (nM): 0.3 | (A) p110β/p85α-ic-Y685A+pY2: EC50 (nM): 0.3 | (A) p110β/p85β-ic-Y683A: EC50 (nM): 0.4 | (A) p110β/p85β-ic-Y683A+pY2: EC50 (nM): 0.3 | (A) p110β/p55γ-ic-Y419A: EC50 (nM): 0.2 | (A) p110β/p55γ-ic-Y419A+pY2: EC50 (nM): 0.2 […]
# Figure S4, Related to Figure 4. Tyr-Mutation in cSH2 Activates PI3K Downstream […]
# (A) Western blot of HEK cells over-expressing wild-type and mutant human p110β/p85α complexes. Protein kinase B (PKB) phosphorylation (pPKB) levels at residues Ser473 and Thr308 were quantified and normalized WT p110β/p85α (WT).
# (B) Quantification of PtdIns(3,4,5)P3 levels in HEK cells over-expressing wild-type and mutant human p110β/p85α complexes. Phospholipids were extracted from cells and PtdIns(3,4,5)P3 and PtdIns(4,5)P2 levels were quantified by mass spectrometry.
# PtdIns(3,4,5)P3 / […] for each construct for two separate experiments measured in duplicates. Error bars indicate SEM. […]
# The PIP3 lipids produced in PI3K in vitro assays as described above were also measured by a mass-spectrometry based assay (Clark et al.). […]
compound,measurement,setting,value
"CS(=O)(=O)N1CCN(Cc2cc3nc(-c4cccc5[nH]ncc45)nc(N4CCOCC4)c3s2)CC1 [GDC0941, 2-(1H-indazol-4-yl)-6-(4-methanesulfonyl-piperazin-1-ylmethyl)-4-morpholin-4-yl-thieno[3,2-d]pyrimidine]",inhibition of ATPase activity,[1],fully inhibited
nicSH2-Y677A: p110β complex with regulatory construct containing wild-type nSH2 but mutant cSH2-Y677A,basal activity versus wild-type complex,[2],basal activity higher than the wild-type
p85α-Y685A: full-length human p85α-Y685A cotransfected with human wild-type p110β,increase in PKB phosphorylation relative to wild-type heterodimer,"[3]; HEK293T cells cotransfected with human p110β and p85α mutant, pSer473 mean n = 3, Figures 4B and S4A",2 fold
p110β/p85α-N564D: heterodimer carrying somatic p85α mutation N564D,phosphorylation of PKB Ser473,"[3]; HEK cells, Figure 4B, n = 3",increase in phosphorylation
same,phosphorylation of PKB Thr308,"[3]; HEK cells, Figure S4A",increase in phosphorylation
